The values that follow come from patent US11066692B2, “Real-time monitoring” (PROMEGA CORPORATION, priority 2012, dated 2021).

Series [1] relates to A549 cells. The series can be described thus: Measuring cell death in real-time. The class given is cell-based. The following applies: 1% final concentration, A549 cells 1,000 cells/well; 40 μM PBI-4600, 100 ng/ml NANOLUC. How it is done: A549 cells were plated into wells of a 384-well plate at 1,000 cells/well in the presence of 40 μM PBI-4600 pro-substrate and 100 ng/ml NANOLUC luciferase protein sensor. The cells were incubated and the luminescence signal was monitored at various time points on a Tecan M1000 plate reader. Triton X-100 was then added to a final concentration of 1%, and compared to control cells that received media only. Luminescence was continually monitored.

Series [2] in a line: Stability of pro-furimazine substrate PBI-4600 in cell culture media (HPLC purity). In kind it is physicochemical. To be noted: 50 μM in RPMI cell culture media, room temperature or 37° C., up to 190 hours. How it is done: PBI-4600 (50 μM) was incubated in RPMI cell culture media at room temperature (RT) or 37° C. for increasing time points, up to 190 hours. HPLC analysis was performed to determine the purity of PBI-4600 at various time points.

Series [3] relates to caspase activation in A549 cells. The series can be described thus: Real-time monitoring of caspase activation. The class given is cell-based. The following applies: 4 μM final concentration, 50 μM PBI-3741, 40 ng/ml NANOLUC. How it is done:
A549 cells were plated at 1,000 cells/well into wells of a 384-well assay plate. 50 μM PBI-3741 (a pro-furimazine caspase substrate) and 40 ng/ml NANOLUC luciferase enzyme were added to the cells. To induce apoptosis, staurosporine was added to the cells at a 4 μM final concentration. The induction of apoptosis and activation of caspase were measured in real-time.

For series [4], the system named is reactive oxygen species (ROS) in A549 cells. As to the kind of experiment: Real-time monitoring of reactive oxygen species (ROS). The class given is cell-based. The following applies: 200 μM, 10, 25 or 50 μM PBI-4759, 40 ng/ml NANOLUC. How it is done: A549 cells were plated at 1,000 cells/well into wells of a 384-well plate and incubated overnight. Then, either 10, 25, or 50 μM of a pro-furimazine hydrogen peroxide substrate, PBI-4759, and 40 ng/ml NANOLUC luciferase protein sensor were added to the cells. Menadione (200 μM), a known ROS inducer, or a vehicle control (DMSO) was added to the cells. Luminescence was monitored over time using a Tecan M1000 plate reader.

Series [5] has as its system Cardiomyocyte cells. The series can be described thus: Real-time measuring of drug induced changes in viability. The class given is cell-based. The following applies: 200 μg/ml final, after multiple days of cell growth; 40 uM PBI-4600, 100 ng/ml NANOLUC. How it is done: Cardiomyocyte cells were plated and grown in media containing 40 uM PBI-4600 pro-substrate and 100 ng/ml NANOLUC luciferase protein sensor in a 37° C., 5% CO2 incubator. At various time points, luminescence was monitored on a Tecan M1000 plate reader. After multiple days of cell growth, digitonin was added to a final concentration of 200 μg/ml. Luminescence was read continually, starting immediately after digitonin addition.

Series [6] can be described thus: Protein sensor stability in cell culture. The class given is physicochemical. The following applies: 40 ng/ml in A549 cell culture with 50 μM PBI-4600; signal compared with freshly added sensor. How it is done:
A549 cells were plated at 250 cells/well into wells of a 384-well assay plate. 50 μM PBI-4600 pro-substrate and 40 ng/ml NANOLUC luciferase protein sensor were added to the cell culture and incubated for 72 hours. After incubation, 40 ng/ml NANOLUC luciferase protein sensor was added to the cell culture, and the signal was monitored 1.5 hours later.

In the case of Triton X-100, the “change in luminescence signal (cell viability) after addition” value in series [1] is on record as “rapid decrease in signal”.

As for `CC1=C(C)C(=O)C(C(C)(C)CC(=O)N(C)CCN(C)C(=O)Oc2c(Cc3ccco3)nc3c(Cc4ccccc4)nc(-c4ccccc4)cn23)=C(C)C1=O` [PBI-4600], in series [2], the “purity of PBI-4600 (HPLC) after incubation” value is on record as “greater than 90%”.

As for `CN[C@@H]1C[C@H]2O[C@@](C)([C@@H]1OC)n1c3ccccc3c3c4c(c5c6ccccc6n2c5c31)C(=O)NC4` [staurosporine], the “change in luminescence (caspase activation) during treatment” value in series [3] was “increase in luminescence”.

In the case of `CC1=CC(=O)c2ccccc2C1=O` [menadione, Menadione], the “time at which maximum luminescence signal was reached after addition” value in series [4] amounted to 5 h.

Take `C[C@@H]1CC[C@@]2(OC1)O[C@H]1[C@@H](O)[C@H]3[C@@H]4CC[C@H]5C[C@@H](O[C@@H]6O[C@H](CO)[C@H](O[C@@H]7O[C@H](CO)[C@@H](O)[C@H](O[C@@H]8OC[C@@H](O)[C@H](O)[C@H]8O)[C@H]7O[C@@H]7O[C@H](CO)[C@H](O)[C@H](O[C@@H]8O[C@H](CO)[C@@H](O)[C@H](O)[C@H]8O)[C@H]7O)[C@H](O)[C@H]6O)[C@H](O)C[C@]5(C)[C@H]4CC[C@]3(C)[C@H]1[C@@H]2C` [digitonin]: the “change in luminescence signal (cell viability) after addition” value in series [5] is “rapid decrease in signal”.

B1: NANOLUC luciferase: modified, enhanced luciferase enzyme from Oplophorus, Promega Corporation, SEQ ID NO: 1 (protein)
chain: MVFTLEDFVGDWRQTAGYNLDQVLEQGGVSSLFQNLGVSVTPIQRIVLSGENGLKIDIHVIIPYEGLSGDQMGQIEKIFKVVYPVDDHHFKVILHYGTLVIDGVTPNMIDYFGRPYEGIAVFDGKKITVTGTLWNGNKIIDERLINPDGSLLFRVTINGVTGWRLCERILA
Regarding B1, the “time stable in cell culture conditions” value in series [6] is “at least 72 h”.
